We go through 43 molecules from ChEMBL document CHEMBL1201862, “PubChem BioAssay data set” (2004).

Activity calls are given as the source filed them. Where only a bound is given, the exact number is not on record here.

For orientation: AC50 means the concentration giving half of the maximal activity seen. The term IC50 denotes the midpoint of a concentration-inhibition curve.

In assay [1] the target is Cytochrome P450 3A4 (Homo sapiens, UniProt P08684).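 Further: CYP3A4 tested as one member of a cytochrome P450 panel screen.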
The target in assay [2] is Cytochrome P450 2D6 (Homo sapiens, UniProt P10635).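 Further: CYP2D6 member of a cytochrome P450 panel assay.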
The target in assay [3] is T1, Cytochrome P450 1A2 (Homo sapiens, UniProt P05177).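 Further: PubChem cytochrome P450 panel assay, CYP1A2 panel member.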
T1 sequence (P05177 whole entry): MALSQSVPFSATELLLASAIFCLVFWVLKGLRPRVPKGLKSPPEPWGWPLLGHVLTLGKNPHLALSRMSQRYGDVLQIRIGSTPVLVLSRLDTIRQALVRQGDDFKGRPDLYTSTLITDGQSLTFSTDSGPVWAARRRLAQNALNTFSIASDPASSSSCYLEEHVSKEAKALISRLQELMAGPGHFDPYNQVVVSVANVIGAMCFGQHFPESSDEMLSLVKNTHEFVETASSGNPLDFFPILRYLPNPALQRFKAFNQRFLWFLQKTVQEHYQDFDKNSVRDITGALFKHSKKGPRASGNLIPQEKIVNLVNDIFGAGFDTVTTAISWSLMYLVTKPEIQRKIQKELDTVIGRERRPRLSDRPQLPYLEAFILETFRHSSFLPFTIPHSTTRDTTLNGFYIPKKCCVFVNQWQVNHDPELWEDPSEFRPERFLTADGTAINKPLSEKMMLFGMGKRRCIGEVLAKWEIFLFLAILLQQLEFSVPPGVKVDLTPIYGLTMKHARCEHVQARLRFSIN

The target of assay [4] is T2, Calpain-2 catalytic subunit (Sus scrofa, UniProt P43367).
T2 sequence (P43367 whole entry): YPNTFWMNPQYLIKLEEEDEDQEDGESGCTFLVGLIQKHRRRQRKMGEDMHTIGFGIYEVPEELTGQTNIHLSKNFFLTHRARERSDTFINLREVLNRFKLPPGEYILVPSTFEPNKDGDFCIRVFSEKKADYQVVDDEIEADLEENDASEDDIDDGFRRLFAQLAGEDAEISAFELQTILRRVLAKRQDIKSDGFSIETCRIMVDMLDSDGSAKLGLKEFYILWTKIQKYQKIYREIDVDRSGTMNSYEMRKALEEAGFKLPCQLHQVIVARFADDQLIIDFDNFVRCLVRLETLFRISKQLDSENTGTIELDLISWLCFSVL
In words: m-calpain protease blockers, concentration series – biochemical, fluorogenic peptide substrate, dose response (AID 1420). Type of assay: functional.

A short description of assay [5]: viability of PTEN-deleted HCT116 cells – cell-based, HCT116 PTEN knockout, dose response (AID 1047).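 Further: HCT116 colon tumor cells with PTEN knocked out; cells exposed to compound for 60 hours before readout; potency for loss of cell viability measured by luminescence.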 Type of assay: functional.
The nature of assay [6]: viability of HCT116 lacking mutant beta-catenin – cell-based, human colon tumor, dose response (AID 1045).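 Further: HCT116 colon tumor cells with beta catenin knocked out; cells exposed to compound for 60 hours.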 Type of assay: functional.
For assay [7], the target named is Cytochrome P450 2C9 (Homo sapiens, UniProt P11712).
Assay [8] is described as follows: cells. Type of assay: functional.
Assay [9] deals with T3, Corticotropin-releasing factor receptor 2/Corticotropin-releasing factor-binding protein (Homo sapiens, UniProt P24387+Q13324).
T3 sequence (Q13324 whole entry): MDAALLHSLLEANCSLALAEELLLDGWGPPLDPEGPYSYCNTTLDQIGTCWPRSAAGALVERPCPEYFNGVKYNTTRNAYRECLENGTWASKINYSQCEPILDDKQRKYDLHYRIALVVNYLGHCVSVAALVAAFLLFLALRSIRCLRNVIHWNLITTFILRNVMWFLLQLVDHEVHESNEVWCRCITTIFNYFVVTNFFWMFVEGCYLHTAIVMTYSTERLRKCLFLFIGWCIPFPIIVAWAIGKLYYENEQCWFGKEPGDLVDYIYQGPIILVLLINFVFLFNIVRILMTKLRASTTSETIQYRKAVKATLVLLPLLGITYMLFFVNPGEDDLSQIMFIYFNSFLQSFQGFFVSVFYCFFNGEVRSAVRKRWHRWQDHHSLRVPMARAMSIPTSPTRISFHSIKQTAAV
T3 sequence (P24387 whole entry): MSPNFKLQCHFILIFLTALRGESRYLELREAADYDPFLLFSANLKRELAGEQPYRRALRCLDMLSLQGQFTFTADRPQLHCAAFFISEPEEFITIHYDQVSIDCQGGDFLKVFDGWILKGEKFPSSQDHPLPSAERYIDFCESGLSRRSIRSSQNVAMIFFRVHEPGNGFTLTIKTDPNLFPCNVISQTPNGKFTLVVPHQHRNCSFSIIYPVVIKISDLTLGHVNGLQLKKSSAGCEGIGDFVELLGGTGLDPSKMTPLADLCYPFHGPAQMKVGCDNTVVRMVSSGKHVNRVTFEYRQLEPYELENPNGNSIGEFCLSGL
Kind of assay: activators of CRF receptor 2 with binding protein – uHTS hits, confirmation (AID 602473). It counts as functional. The conditions noted are these: read-out: EC50_Mean.

Assay [10] concerns Streptococcus sp. 'group A'. Kind of assay: Streptococcus pyogenes SK(-)GAS viability under kanamycin – luminescence, BacTiterGlo, confirmation, counter-screen for streptokinase expression inhibitor project, dose response (AID 1900). Type of assay: functional, organism-based.
Assay [11] relates to Streptococcus. Kind of assay: GAS UMAA2166 growth inhibition – luminescence, BacTiterGlo, counter-screen for streptokinase expression inhibitor project, dose response (AID 1915).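 Further: potency for reduction of bacterial viability or growth.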 Type of assay: functional, organism-based. A general note: Counterscreens check selectivity or assay interference.
The nature of assay [12]: Luminescence Cell-Based Dose Retest to Confirm Inhibitors of Cancer Stem Cells. [Related pubchem assays (depositor defined):AID2717, AID2721]. Type of assay: functional. The conditions noted are these: Homo sapiens.
The target of assay [13] is T4, Streptokinase A (Streptococcus pyogenes serotype M1, UniProt P10520).
T4 sequence (P10520 whole entry): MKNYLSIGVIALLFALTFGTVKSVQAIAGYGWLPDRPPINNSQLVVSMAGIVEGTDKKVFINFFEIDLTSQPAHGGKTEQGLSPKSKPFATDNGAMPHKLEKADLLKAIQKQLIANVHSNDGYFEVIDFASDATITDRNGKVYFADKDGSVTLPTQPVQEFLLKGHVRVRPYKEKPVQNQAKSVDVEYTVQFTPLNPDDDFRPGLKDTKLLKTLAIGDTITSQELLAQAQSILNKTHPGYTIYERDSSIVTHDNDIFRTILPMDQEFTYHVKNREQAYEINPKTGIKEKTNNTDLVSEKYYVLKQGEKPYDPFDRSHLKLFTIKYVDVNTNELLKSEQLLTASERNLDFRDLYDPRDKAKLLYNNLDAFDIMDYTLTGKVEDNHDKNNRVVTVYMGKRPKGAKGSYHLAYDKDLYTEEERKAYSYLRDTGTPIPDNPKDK
In words: viability-normalized secreted streptokinase activity reduction – plasminogen activation absorbance, OD405, dose response (AID 1914).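 Further: secreted streptokinase activity via plasminogen activation per viability signal from cell pellet.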 It counts as functional, Streptococcus pyogenes M1 GAS.

Cytochrome P450 3A4, sequence (P08684 whole entry): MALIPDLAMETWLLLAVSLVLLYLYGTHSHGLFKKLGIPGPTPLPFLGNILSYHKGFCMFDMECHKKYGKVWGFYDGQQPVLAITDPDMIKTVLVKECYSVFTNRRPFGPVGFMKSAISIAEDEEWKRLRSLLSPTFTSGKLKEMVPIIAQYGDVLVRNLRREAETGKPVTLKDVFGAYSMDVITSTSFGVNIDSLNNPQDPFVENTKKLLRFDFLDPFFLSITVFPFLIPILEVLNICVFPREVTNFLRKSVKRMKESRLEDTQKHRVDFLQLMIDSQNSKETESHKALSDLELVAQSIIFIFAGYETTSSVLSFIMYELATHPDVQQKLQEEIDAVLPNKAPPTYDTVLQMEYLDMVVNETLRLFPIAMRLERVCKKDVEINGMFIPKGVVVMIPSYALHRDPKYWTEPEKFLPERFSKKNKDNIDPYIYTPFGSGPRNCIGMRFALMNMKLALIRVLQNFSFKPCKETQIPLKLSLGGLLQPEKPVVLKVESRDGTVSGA
Cytochrome P450 2D6, sequence (P10635 whole entry): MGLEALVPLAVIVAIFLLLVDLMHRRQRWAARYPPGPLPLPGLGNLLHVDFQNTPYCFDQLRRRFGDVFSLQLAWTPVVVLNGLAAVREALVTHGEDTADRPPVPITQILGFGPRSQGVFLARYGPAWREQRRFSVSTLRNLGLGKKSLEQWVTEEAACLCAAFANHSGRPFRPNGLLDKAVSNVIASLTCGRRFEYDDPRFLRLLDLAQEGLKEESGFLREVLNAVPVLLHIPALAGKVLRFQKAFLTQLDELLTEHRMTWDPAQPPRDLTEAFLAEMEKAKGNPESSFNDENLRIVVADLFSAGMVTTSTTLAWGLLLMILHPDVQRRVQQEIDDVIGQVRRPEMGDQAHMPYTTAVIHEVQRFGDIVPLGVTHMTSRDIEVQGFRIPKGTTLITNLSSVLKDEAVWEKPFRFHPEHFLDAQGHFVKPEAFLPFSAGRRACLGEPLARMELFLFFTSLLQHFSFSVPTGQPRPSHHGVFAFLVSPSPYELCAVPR
Cytochrome P450 2C9, sequence (P11712 whole entry): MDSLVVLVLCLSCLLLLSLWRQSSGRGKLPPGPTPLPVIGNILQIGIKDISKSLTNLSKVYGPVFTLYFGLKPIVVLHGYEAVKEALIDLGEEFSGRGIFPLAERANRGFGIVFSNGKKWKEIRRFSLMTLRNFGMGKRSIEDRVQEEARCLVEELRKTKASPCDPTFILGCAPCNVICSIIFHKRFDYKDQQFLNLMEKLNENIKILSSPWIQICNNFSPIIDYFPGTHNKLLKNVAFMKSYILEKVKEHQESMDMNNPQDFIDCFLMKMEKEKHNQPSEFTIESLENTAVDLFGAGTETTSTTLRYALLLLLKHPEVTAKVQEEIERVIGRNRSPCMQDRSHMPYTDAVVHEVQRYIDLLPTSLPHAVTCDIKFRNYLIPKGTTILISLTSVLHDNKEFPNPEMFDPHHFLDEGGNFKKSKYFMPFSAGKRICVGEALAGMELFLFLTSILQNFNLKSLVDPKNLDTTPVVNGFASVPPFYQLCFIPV

As to `CC(C)Oc1cccnc1N(C)C1CCN(Cc2ccccc2)CC1`, in [1], the AC50 is 15.8 µM (inconclusive).

In the case of `O=c1c(-c2ccc(F)cc2)nc2cnc(N3CCOCC3)nc2n1Cc1ccc(F)cc1`, the AC50 in [2] is 39.8 µM (inconclusive); in [3] it was 20 µM (inconclusive).

Turning to `C=CCNc1cnn(-c2ccc(C)cc2)c(=O)c1Sc1ccc(C)cc1`, the IC50 in assay [4] was > 50 µM (not active).

Turning to `O=[N+]([O-])C(=C1Nc2ccccc2N1)C(Cl)=C(Cl)Cl`, the IC50 in assay [4] is 27.8 µM (not active).

On to `NS(=O)(=O)c1ccc(/N=N\c2nc3c(O)nc(O)nc3[nH]2)cc1`, for which the AC50 in assay [1] is 0.631 µM (inconclusive).

In the case of `N#CCCn1c(=O)c(-c2ccc(Cl)cc2)nc2cnc(N3CCNCC3)nc21`, the AC50 in [1] is 25.1 µM (inconclusive).

With `O=C(Nc1cccc(C(F)(F)F)c1)N(Cc1ccc(Cl)cc1)CC(O)C(F)(F)F` (configuration not stated), the EC50 was 19.6 µM (active) in [5] and 23.8 µM (active) in [6]. For the same molecule, the AC50 in assay [1] was 22.4 µM (inconclusive).

Turning to `O=C(Nc1cccc(Br)c1)/C(=C\c1cccnc1)NC(=O)c1ccco1`, the values for the AC50 in [3] and in [7] were 31.6 µM (inconclusive) and 39.8 µM (inconclusive), respectively.

In the case of `Cc1nc2ncnn2c(C)c1CCC(=O)NCCC1=CCCCC1`, the AC50 in [1] is 15.8 µM (inconclusive); in assay [7] it was 14.1 µM (inconclusive).

Consider `COc1ccc(NC(=O)C2CCCN(S(=O)(=O)c3cccc4cccnc34)C2)c(OC)c1` (configuration not stated), for which the IC50 in assay [4] is 4.57 µM (not active).

Consider `COc1ccc2cc(C(=O)C3CCCN(Cc4ccccn4)C3)ccc2c1` (configuration not stated), for which the concentration for half-maximal inhibition (IC50) in assay [8] is 5.03 µM (active).

Take `Cc1cccc(Oc2ccc(S(=O)(=O)N3CCCCC3)cc2N)c1`: in assay [4], the IC50 was 11.2 µM (not active).

Regarding `O=C(COC(=O)CC1c2ccccc2CCN1S(=O)(=O)c1ccccc1)Nc1ccccc1` (configuration not stated), the IC50 in assay [4] was 8.09 µM (not active).

Consider `Cc1cccc(Oc2ccc(NC(=O)c3ccccc3C(=O)O)cc2)c1C`, for which the EC50 in [9] is 8.97 µM (active).

As for `CC(C)N1CCC(=NNC(=O)c2ccc(Br)o2)CC1`, the figures for the AC50 in assay [2] and in assay [3] were 10 µM (inconclusive) and 17.8 µM (inconclusive), respectively.

In the case of `COc1ccc(OC)c(NC(=O)CC(Cc2ccccc2OC)C(=O)O)c1` (configuration not stated), the AC50 in [3] is 0.0316 µM (inconclusive).

Regarding `CC(C)NC(=S)NC(=O)c1ccc(-c2ccccc2)cc1`, in assay [9], the EC50 is > 53 µM (inactive).

As to `CC1(C)CO[C@H](CC(=O)O)CN1`, the AC50 in assay [3] was 31.6 µM (inconclusive); in [7], 39.8 µM (inconclusive).

For the molecule `N#Cc1cc([N+](=O)[O-])ccc1NC(=O)COC(=O)C12CC3CC(CC(C3)C1)C2`, the IC50 in assay [4] is given as 14.4 µM (not active).

For the molecule `CS(=O)(=O)N1CCc2cc(NC(=O)c3ccc(Cl)cc3Cl)ccc21`, the IC50 in assay [4] was 13.7 µM (not active).

In the case of `COc1ccc(C(=O)N2CCC3(CCCN(c4ncccn4)C3)CC2)cc1`, the figures for the concentration at half-maximal activity (AC50) in assay [2], in assay [3] and in assay [1] were 31.6 µM (inconclusive), 20 µM (inconclusive) and 39.8 µM (inconclusive), respectively.

For `Cn1c(=O)c2[nH]c(SCCN3CCOCC3)nc2n(C)c1=S`, the AC50 in assay [3] is 0.631 µM (inconclusive); in [1] it was 3.16 µM (inconclusive); in assay [7], 6.31 µM (inconclusive).

In the case of `O=C(C1=C[C@H](c2ccc(C(F)(F)F)cc2)C[C@H](OCc2ccc(CO)cc2)O1)N1CCCCCCC1`, the 50% inhibitory concentration (IC50) in [4] is given as 14.8 µM (not active).

Take `Cc1cccc(Cc2cnc(NC(=O)C3=NCCN3)s2)c1`: the IC50 in assay [8] is 4.6 µM (active).

On to `CC1CCCCN1C(=O)c1cc(-c2ccc(Cl)c(Cl)c2)on1` (configuration not stated), for which the IC50 in assay [4] is on record as 3.9 µM (not active).

Take `Cc1ccnc(NC(=O)CCCOc2ccc(Cl)cc2C)c1`: the half-inhibitory concentration (IC50) in assay [4] was 0.444 µM (not active).

Turning to `COc1cccc(C2C3=C(CC(C)(C)CC3=O)OC(N)=C2[N+](=O)[O-])c1` (configuration not stated), the AC50 is 15.8 µM (inconclusive) in [1] and 12.6 µM (inconclusive) in assay [7].

In the case of `O=C(SCc1cccc2ccccc12)c1ccc(Cl)cc1`, in [3], the AC50 is 0.794 µM (inconclusive).

`COCc1c(C(N)=O)nnn1-c1nonc1N`: the AC50 in assay [3] was 25.1 µM (inconclusive).

For `O=[N+]([O-])c1cc(C(F)(F)F)ccc1NCCN=C(S)Nc1ccc(Cl)cc1`, the EC50 in [10] was 7.05 µM (active); in [5] it was 11.7 µM (active); in assay [6], 14.9 µM (active); in assay [11] it was 7.65 µM (active). Also, the AC50 in assay [12] was 3.04 µM (active).

As for `O=[N+]([O-])c1cc(C(F)(F)F)ccc1NCCNC(=S)Nc1ccc(Cl)cc1`, the EC50 in assay [13] is > 150 µM (not active). The IC50 in [4] is 7.92 µM (not active).

For `COc1cc2c(cc1OC)CN(CCC(=O)c1ccc(Br)cc1)CC2`, the IC50 in assay [8] is 16.5 µM (active).

Consider `CC1(C)S[C@@H]2[C@H](C(=O)O)N=C(Cc3ccccc3)N2[C@H]1C(=O)O`, for which the AC50 in [3] is 6.31 µM (inconclusive).

Turning to `O=c1c(-c2ccccc2)nc2cnc(N3CCOCC3)nc2n1Cc1cccs1`, the AC50 is 2.51 µM (inconclusive) in assay [3] and 20 µM (inconclusive) in assay [7].

For the molecule `CCOC(=O)COc1ccc2c(=O)c(-c3ccccc3)coc2c1`, the IC50 in assay [8] is < 0.1 µM (active).

With `COc1ccc(Oc2nc(C)cc(C)c2S(=O)(=O)c2ccc(C)cc2)cc1`, the AC50 in assay [1] was 1.12 µM (inconclusive).

Turning to `O=C(Nc1ccccc1)N1CC[C@@]2(CCCN(C(=O)c3cccc(F)c3)C2)C1`, the AC50 in [1] is 25.1 µM (inconclusive).

Turning to `CN(C1CCCCC1)S(=O)(=O)c1ccc(S(=O)(=O)N2CCCC2)cc1`, in assay [4], the IC50 is reported as 10.4 µM (not active).

`Cc1noc(NS(=O)(=O)c2ccc(NC(=O)c3ccc(Br)o3)cc2)c1C`: the AC50 in assay [1] is 39.8 µM (inconclusive); in assay [7] it was 14.1 µM (inconclusive).

As for `COc1ccccc1CNCc1cccs1`, the AC50 in assay [1] was 17.8 µM (inconclusive).

Turning to `C/C(=N\NC(=O)COc1ccc(C(C)(C)C)cc1)c1ccccc1`, the half-inhibitory concentration (IC50) in assay [4] is 5.74 µM (not active).

`COc1cc(OC)cc(C(=O)N/N=C/c2ccc(OC)c(COc3ccc(F)cc3)c2)c1`: in [9], the EC50 was > 53 µM (inactive).

`N[C@H](C(=O)O)c1cccc(O)c1`: the AC50 in assay [3] was 39.8 µM (inconclusive).
